According to US10882843B2, “5-aminopyrazole carboxamide derivative as BTK inhibitor and preparation method and pharmaceutical composition thereof” (SUZHOU SINOVENT PHARMACEUTICALS CO., LTD., priority 2016, dated 2021):

Tests used:
ITK = target: T1, ITK (Homo sapiens, UniProt Q08881); assay: In vitro kinase selectivity assay, ITK (TR-FRET); assay type: biochemical; conditions: read-out: ITK kinase inhibitory activity grade
T1 sequence (Q08881 1-620): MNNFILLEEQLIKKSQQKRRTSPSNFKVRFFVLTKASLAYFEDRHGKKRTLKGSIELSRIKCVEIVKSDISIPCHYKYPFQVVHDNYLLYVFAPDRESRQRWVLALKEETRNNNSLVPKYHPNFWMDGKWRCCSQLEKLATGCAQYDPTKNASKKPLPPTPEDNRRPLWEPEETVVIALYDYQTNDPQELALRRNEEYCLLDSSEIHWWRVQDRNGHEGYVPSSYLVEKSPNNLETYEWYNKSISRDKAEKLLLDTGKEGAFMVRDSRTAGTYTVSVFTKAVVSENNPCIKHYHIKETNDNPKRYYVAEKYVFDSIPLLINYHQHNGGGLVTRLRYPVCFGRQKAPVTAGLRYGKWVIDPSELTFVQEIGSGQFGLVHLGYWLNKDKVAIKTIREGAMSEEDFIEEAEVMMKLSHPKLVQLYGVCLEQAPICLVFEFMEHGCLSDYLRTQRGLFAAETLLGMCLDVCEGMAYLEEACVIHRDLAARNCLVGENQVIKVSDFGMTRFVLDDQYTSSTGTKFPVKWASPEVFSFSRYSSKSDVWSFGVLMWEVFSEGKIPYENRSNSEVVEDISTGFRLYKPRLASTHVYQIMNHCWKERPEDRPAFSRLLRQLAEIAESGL
Experimental: (§1) The assay platform for EGFR and ITK kinase activities was established using time-resolved fluorescence resonance energy transfer-based method; the assay platform for LCK, SRC and LYN kinase activities was established using Z′-Lyte method; and the assay platform for TEC and JAK3 kinase activities was established using Lance Ultra method. The inhibitory effects of the compounds disclosed herein on different kinase activities were tested separately for each compound at 11 concentrations. The IC50 value of each compound was calculated using Graphpad Prism software.

Recombinant Btk = Recombinant Btk (Homo sapiens, UniProt Q06187); assay: Kinase activity (BTK) inhibition assay, TR-FRET; assay type: biochemical; conditions: read-out: BTK kinase inhibitory activity grade (A/B/C)
Experimental: Kinase Activity (BTK) Inhibition Assay
The inhibitory effects of the compounds disclosed herein on BTK kinase activity were tested in an assay based on a time resolved fluorescence resonance energy transfer (TR-FRET) method. Recombinant Btk was pre-incubated with the compound disclosed herein in an assay buffer containing 50 mM. Tris pH 7.4, 10 mM MgCl2, 2 mM MnCl2, 0.1 mM EDTA, 1 mM DTT, 20 nM SEB, 0.1% BSA, 0.005% tween-20 at room temperature for 1 hour. The reaction was initiated by the addition of ATP (at the ATP Km concentration) and the peptide substrate (Biotin-[…]-NH2). After incubation for 1 hour at room temperature, an equal volume of stop solution containing 50 mM HEPES pH 7.0, 800 mM KF, 20 mM EDTA, 0.1% BSA, p-Tyr66 antibody linked with Eu cryptate and streptavidin-labeled XL665 was added to stop the reaction. The plate was incubated for an additional hour at room temperature and then the TR-FRET signal was read on a BMG PHERAstar FS instrument (ex337 nm, em 620 nm/665 nm). Based on the ratio of the signal of fluorescence at […] to 665 nm, the enzyme activity was calculated with an increased compound concentration. IC50 of each compound was obtained by fitting the data to the four-parameter equation of Graphpad Prism software.

EGFR = EGFR (Homo sapiens, UniProt P00533); assay: In vitro kinase selectivity assay, EGFR (TR-FRET); assay type: biochemical; conditions: read-out: EGFR kinase inhibitory activity grade
Experimental: as §1

LYN = LYN (Homo sapiens, UniProt P07948); assay: In vitro kinase selectivity assay, LYN (Z'-Lyte); assay type: biochemical; conditions: read-out: LYN kinase inhibitory activity grade
Experimental: as §1

LCK = LCK (Homo sapiens, UniProt P06239); assay: In vitro kinase selectivity assay, LCK (Z'-Lyte); assay type: biochemical; conditions: read-out: LCK kinase inhibitory activity grade
Experimental: as §1

[1] = test system: diffuse large B-cell lymphoma cell line TMD-8; assay: Pharmacodynamic assay, TMD-8 xenograft in NOD.SCID mice; assay type: in vivo; conditions: p.o. daily for 21 days
Experimental: Severe immunodeficiency NOD.SCID mice were purchased from Beijing Vital River Laboratory Animal Technology Co., Ltd., and were housed in SPF grade animal room. After TMD-8 cells were cultured to the sufficient amount, the cells were collected by centrifugation and washed twice with PBS. Finally, the cells were resuspended in serum-free RPMI 1640 medium plus Matrigel (1:1 v/v). 0.2 ml of cell suspension was injected subcutaneously on the right flank of each mouse using 1 ml syringe and 25 G syringe needle. The tumor size was measured with a caliper after about one week post injection. The tumor volume was calculated according to the following formula: tumor volume=(length×width^2)/2. When the tumor volume reached about 100-200 mm^3, the mice were grouped and p.o. administered daily for 21 days.

TEC = target: T2, TEC (Homo sapiens, UniProt P42680); assay: In vitro kinase selectivity assay, TEC (Lance Ultra); assay type: biochemical; conditions: read-out: TEC kinase inhibitory activity grade
T2 sequence (P42680 1-631): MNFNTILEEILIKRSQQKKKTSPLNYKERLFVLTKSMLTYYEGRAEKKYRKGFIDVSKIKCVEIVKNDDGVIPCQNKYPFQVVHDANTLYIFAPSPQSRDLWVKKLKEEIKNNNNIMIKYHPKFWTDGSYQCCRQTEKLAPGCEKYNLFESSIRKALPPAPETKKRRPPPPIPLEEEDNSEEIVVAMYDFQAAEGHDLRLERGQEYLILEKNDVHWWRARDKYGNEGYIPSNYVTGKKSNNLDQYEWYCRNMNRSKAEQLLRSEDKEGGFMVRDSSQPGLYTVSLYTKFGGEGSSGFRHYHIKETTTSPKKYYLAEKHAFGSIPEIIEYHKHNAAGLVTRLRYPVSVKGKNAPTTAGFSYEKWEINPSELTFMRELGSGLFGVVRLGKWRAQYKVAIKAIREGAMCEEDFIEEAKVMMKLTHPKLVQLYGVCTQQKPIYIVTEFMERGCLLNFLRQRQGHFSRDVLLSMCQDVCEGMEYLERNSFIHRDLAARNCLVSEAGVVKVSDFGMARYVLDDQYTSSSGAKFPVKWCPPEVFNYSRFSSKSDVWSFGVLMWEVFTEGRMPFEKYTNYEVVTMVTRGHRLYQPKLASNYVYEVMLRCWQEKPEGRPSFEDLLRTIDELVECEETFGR
Experimental: as §1

SRC = SRC (Homo sapiens, UniProt P12931); assay: In vitro kinase selectivity assay, SRC (Z'-Lyte); assay type: biochemical; conditions: read-out: SRC kinase inhibitory activity grade
Experimental: as §1

Sequence of LYN (P07948 whole entry, species assumed): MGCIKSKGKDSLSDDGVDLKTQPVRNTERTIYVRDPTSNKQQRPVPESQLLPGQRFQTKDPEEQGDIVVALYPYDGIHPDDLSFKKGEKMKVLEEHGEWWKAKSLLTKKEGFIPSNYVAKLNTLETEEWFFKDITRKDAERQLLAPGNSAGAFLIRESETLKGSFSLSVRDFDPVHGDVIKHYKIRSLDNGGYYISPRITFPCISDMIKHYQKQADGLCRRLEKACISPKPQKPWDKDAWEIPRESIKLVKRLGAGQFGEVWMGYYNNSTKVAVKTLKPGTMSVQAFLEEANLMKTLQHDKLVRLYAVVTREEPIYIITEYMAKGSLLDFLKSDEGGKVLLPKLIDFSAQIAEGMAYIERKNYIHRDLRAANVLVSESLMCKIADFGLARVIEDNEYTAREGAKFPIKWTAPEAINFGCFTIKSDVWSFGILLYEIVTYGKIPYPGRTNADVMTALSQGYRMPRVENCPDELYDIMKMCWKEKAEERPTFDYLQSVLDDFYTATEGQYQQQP
Sequence of SRC (P12931 whole entry, species assumed): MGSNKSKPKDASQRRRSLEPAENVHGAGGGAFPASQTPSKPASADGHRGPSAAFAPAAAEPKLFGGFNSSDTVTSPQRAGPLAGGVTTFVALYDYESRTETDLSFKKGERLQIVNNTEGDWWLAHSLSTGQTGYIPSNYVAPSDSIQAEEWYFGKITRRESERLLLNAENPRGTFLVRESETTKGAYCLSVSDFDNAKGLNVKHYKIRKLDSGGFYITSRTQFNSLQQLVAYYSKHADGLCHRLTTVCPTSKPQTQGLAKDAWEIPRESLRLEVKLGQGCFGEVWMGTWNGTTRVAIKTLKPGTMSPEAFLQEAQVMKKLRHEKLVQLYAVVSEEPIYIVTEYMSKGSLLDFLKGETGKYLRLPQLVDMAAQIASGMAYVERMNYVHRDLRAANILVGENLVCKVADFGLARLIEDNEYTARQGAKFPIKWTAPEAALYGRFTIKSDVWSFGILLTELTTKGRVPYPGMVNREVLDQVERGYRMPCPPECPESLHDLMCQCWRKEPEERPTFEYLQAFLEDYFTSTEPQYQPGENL
Sequence of Recombinant Btk (Q06187 whole entry): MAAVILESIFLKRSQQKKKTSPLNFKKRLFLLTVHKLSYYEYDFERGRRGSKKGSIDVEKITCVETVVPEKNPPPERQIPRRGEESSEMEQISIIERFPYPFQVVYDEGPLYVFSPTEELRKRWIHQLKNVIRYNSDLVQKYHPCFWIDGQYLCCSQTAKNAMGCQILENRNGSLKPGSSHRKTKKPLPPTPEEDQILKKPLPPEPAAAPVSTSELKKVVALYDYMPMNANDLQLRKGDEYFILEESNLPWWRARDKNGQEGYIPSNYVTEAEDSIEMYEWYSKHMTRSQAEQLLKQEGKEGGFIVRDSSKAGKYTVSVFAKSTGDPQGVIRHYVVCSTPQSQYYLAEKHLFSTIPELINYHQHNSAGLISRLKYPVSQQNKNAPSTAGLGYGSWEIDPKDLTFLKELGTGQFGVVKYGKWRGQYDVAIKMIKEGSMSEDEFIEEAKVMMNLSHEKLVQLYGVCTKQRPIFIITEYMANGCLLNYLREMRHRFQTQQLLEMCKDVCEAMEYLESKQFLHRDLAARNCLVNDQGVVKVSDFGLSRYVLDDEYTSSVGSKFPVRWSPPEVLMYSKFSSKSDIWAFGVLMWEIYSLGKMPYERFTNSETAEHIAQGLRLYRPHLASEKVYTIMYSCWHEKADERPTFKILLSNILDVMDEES
Sequence of EGFR (P00533 25-1210): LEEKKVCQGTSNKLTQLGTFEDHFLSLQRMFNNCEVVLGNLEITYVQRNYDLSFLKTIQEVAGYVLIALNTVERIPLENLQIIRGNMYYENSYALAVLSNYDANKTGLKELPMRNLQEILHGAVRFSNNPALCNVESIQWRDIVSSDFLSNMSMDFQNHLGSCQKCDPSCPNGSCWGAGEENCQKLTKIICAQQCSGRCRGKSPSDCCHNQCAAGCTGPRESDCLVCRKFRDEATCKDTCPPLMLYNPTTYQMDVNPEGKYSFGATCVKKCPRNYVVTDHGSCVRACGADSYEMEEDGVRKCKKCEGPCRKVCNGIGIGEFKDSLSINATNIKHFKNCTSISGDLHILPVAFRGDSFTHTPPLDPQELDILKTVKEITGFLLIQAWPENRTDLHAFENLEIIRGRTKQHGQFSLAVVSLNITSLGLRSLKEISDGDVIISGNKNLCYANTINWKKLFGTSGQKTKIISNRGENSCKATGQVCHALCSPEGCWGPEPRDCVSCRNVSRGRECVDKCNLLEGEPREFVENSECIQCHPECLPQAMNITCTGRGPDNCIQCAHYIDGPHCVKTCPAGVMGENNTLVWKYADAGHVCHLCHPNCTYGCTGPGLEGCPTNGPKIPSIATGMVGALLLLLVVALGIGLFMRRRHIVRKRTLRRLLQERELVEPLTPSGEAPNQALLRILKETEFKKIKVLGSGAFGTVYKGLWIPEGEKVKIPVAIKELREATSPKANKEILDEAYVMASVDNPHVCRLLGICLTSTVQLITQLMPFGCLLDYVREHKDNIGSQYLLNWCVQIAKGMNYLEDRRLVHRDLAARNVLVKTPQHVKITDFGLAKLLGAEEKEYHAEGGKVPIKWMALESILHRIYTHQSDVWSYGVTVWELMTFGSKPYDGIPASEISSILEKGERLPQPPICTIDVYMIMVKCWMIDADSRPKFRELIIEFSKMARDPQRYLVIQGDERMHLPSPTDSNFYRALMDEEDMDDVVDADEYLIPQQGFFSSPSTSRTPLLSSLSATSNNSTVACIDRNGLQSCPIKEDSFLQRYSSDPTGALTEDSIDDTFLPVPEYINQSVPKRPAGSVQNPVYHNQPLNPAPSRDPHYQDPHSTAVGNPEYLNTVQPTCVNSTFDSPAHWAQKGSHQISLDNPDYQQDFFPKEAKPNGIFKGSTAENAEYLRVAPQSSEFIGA
Sequence of LCK (P06239 whole entry, species assumed): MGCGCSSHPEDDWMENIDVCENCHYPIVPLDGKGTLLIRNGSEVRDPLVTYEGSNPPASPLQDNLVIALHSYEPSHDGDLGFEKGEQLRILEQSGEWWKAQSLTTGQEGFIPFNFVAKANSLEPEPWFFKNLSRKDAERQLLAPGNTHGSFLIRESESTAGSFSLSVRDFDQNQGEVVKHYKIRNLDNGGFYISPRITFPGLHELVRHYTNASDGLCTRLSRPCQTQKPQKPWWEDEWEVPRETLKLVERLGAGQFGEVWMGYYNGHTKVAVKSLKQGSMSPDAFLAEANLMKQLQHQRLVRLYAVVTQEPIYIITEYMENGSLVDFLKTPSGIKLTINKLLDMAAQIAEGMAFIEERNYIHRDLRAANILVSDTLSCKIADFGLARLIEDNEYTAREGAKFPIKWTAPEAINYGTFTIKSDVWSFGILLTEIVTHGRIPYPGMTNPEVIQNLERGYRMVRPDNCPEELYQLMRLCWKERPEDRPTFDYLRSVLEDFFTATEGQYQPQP

IC50 (ITK): > 1 µM | IC50 (Recombinant Btk): < 0.1 µM | IC50 (EGFR): > 1 µM | IC50 (LYN): > 1 µM | IC50 (LCK): > 1 µM | IC50 (TEC): < 0.1 µM | IC50 (SRC): > 1 µM
SMILES: CC#CC(=O)N1C[C@H](n2nc(-c3ccc(Oc4ccc(Cl)cn4)cc3)c(C(N)=O)c2N)CCC12CC2 [WS-416, (R)-5-amino-1-(4-(2-butynoyl)-4-azaspiro[2.5]oct-6-yl)-3-(4-((5-chloropyridin-2-yl)oxy)phenyl)-1H-pyrazole-4-carboxamide]
growth of TMD-8 tumor in vivo [1]: significantly inhibited the growth
